This note sets out measurements from ChEMBL document CHEMBL1145498, “A systematic interaction map of validated kinase inhibitors with Ser/Thr kinases” (Proc Natl Acad Sci U S A, 2007).

As a reminder, the ΔTm is the change in melting temperature against a reference sample.

Experiment [1] deals with Serine/threonine-protein kinase Nek6 (Homo sapiens) (UniProt Q9HC98).
Experiment [2] has as its target Dual specificity protein kinase CLK1 (Homo sapiens) (UniProt P49759).
In experiment [3] the target is Dual specificity protein kinase CLK2 (Homo sapiens) (UniProt P49760).
Experiment [4] addresses Serine/threonine-protein kinase 25 (Homo sapiens) (UniProt O00506).
Experiment [5] addresses T1, Serine/threonine-protein kinase PLK4 (Homo sapiens) (UniProt O00444).
T1 sequence (whole entry): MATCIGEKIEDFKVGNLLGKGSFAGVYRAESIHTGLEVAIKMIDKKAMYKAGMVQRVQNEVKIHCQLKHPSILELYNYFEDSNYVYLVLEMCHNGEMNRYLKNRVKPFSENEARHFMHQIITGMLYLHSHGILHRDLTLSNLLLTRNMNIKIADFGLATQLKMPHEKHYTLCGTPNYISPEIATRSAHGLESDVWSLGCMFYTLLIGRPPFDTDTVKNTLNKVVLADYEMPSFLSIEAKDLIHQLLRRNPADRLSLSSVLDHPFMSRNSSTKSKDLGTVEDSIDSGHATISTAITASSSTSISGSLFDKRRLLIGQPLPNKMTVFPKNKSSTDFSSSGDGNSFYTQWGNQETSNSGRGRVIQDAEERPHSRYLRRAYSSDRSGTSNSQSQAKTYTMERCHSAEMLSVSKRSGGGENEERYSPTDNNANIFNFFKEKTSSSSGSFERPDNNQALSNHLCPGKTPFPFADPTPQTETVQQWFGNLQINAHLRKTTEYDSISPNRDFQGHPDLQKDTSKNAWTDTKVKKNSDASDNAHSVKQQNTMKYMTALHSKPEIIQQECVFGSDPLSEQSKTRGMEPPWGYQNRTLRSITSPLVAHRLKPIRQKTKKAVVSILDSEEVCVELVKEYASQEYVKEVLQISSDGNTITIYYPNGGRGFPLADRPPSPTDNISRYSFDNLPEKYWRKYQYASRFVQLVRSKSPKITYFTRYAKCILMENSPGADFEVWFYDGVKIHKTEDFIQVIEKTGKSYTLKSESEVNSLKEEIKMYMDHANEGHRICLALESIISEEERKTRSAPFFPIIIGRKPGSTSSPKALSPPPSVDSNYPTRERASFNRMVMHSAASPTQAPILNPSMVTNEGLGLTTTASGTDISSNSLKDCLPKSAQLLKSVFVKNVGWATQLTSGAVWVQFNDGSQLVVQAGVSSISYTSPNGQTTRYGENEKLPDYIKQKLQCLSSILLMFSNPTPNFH

Experiment [6] has as its target Cyclin-dependent kinase-like 1 (Homo sapiens) (UniProt Q00532).
For experiment [7], the target named is Dual specificity protein kinase CLK3 (Homo sapiens) (UniProt P49761).
Dual specificity protein kinase CLK3 (Homo sapiens), sequence (P49761 whole entry, looked up): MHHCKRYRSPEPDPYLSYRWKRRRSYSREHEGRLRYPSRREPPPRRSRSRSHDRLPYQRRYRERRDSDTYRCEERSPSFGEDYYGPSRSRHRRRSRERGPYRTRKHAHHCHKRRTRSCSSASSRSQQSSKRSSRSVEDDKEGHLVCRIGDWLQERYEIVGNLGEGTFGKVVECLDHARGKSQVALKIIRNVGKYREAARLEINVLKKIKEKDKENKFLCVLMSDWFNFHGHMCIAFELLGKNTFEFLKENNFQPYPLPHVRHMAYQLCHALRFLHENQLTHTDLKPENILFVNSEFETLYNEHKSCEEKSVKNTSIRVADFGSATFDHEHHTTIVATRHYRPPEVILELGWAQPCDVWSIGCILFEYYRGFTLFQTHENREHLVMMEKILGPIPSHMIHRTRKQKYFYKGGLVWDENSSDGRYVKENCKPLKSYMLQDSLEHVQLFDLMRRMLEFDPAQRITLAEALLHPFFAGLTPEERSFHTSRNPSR
Experiment [8] has as its target Serine/threonine-protein kinase 16 (Homo sapiens) (UniProt O75716).
Experiment [9] concerns the target Calcium/calmodulin-dependent protein kinase type II subunit delta (Homo sapiens) (UniProt Q13557).
The target of experiment [10] is Calcium/calmodulin-dependent protein kinase kinase 2 (Homo sapiens, UniProt Q96RR4).
Calcium/calmodulin-dependent protein kinase kinase 2, sequence (Q96RR4 2-588 limits assumed): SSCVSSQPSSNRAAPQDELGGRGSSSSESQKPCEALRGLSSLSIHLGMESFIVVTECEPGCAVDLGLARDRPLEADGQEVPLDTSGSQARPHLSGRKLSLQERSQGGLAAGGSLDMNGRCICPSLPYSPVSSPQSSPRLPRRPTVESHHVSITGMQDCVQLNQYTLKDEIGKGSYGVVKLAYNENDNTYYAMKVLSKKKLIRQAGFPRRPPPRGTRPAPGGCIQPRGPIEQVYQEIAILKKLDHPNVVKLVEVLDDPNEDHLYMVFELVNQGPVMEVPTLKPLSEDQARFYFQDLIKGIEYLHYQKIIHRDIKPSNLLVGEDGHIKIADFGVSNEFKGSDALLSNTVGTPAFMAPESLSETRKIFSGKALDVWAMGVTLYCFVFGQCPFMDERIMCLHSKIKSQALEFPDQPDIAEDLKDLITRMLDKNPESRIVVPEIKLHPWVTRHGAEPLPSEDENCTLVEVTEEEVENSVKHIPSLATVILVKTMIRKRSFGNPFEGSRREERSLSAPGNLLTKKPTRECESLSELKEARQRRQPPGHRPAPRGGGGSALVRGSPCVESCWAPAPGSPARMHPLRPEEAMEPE
Experiment [11] concerns the target T2, Serine/threonine-protein kinase 17A (Homo sapiens) (UniProt Q9UEE5).
T2 sequence (whole entry): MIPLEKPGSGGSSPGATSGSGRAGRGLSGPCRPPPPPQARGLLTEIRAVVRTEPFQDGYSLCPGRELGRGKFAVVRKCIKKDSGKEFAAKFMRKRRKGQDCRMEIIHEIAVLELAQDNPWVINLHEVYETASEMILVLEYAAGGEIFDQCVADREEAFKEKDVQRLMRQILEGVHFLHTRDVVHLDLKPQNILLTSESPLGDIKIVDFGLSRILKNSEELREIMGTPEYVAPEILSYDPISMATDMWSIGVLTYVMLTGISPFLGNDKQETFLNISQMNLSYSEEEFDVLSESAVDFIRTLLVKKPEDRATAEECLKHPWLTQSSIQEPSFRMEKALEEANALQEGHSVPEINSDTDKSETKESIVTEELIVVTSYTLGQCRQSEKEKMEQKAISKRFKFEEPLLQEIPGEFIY

The target of experiment [12] is Serine/threonine-protein kinase VRK2 (Homo sapiens) (UniProt Q86Y07).
The target of experiment [13] is Casein kinase I isoform gamma-3 (Homo sapiens) (UniProt Q9Y6M4).
Casein kinase I isoform gamma-3 (Homo sapiens), sequence (Q9Y6M4 whole entry, looked up, canonical isoform): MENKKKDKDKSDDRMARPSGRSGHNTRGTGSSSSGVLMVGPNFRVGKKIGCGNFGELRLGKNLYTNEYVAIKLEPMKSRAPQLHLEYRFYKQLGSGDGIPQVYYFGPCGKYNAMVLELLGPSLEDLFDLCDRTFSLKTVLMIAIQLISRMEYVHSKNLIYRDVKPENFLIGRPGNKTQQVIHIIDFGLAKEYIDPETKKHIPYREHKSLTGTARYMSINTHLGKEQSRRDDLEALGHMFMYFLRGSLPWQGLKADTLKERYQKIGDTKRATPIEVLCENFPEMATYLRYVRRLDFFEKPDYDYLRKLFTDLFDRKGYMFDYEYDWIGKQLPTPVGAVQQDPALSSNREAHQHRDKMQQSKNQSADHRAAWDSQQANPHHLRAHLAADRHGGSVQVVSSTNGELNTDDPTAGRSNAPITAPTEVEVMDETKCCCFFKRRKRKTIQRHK
Experiment [14] concerns the target Casein kinase I isoform gamma-1 (Homo sapiens) (UniProt Q9HCP0).
For experiment [15], the target named is T3, 3-phosphoinositide-dependent protein kinase 1 (Homo sapiens) (UniProt O15530).
T3 sequence (whole entry): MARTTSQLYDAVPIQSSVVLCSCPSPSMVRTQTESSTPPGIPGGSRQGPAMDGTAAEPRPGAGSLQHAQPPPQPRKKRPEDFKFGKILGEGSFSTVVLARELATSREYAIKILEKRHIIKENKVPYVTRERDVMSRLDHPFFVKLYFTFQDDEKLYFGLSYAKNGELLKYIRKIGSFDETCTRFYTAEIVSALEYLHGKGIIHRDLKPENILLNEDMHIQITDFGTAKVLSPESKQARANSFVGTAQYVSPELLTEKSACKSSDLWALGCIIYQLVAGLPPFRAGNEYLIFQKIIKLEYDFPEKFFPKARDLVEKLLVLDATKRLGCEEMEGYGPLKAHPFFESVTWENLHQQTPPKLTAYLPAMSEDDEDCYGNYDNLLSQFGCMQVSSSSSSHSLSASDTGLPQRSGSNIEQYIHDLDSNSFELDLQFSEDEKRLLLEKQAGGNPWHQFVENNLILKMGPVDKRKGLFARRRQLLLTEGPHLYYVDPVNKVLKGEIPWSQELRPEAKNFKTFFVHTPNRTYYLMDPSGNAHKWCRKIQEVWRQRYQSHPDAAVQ

Experiment [16] has as its target Calcium/calmodulin-dependent protein kinase type II subunit alpha (Homo sapiens) (UniProt Q9UQM7).
In experiment [17] the target is Serine/threonine-protein kinase OSR1 (Homo sapiens) (UniProt O95747).
Serine/threonine-protein kinase OSR1 (Homo sapiens), sequence (O95747 2-527 limits assumed): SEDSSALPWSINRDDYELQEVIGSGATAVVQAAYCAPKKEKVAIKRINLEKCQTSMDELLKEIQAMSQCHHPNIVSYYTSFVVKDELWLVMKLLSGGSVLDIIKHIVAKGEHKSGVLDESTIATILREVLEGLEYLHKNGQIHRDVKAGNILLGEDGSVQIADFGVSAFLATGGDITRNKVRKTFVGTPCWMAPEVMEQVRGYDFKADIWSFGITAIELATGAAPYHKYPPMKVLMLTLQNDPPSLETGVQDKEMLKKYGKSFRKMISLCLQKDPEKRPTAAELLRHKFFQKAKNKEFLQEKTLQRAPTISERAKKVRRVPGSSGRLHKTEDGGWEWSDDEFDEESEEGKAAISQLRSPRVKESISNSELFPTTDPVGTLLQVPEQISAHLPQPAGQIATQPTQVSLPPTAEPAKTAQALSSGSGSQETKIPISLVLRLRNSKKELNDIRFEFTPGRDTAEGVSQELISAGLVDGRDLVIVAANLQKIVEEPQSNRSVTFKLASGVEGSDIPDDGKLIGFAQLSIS

Serine/threonine-protein kinase 25 (Homo sapiens), sequence (O00506 whole entry, looked up): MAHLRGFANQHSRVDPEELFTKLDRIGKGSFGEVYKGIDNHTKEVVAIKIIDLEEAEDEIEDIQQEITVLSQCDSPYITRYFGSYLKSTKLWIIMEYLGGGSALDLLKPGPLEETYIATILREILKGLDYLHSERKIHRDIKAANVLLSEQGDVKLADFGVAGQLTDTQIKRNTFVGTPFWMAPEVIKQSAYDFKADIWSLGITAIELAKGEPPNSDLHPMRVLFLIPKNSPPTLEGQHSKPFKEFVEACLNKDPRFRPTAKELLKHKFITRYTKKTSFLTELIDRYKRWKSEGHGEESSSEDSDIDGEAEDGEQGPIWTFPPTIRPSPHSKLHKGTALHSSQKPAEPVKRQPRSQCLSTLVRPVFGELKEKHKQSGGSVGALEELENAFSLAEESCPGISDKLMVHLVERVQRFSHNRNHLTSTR
Calcium/calmodulin-dependent protein kinase type II subunit delta (Homo sapiens), sequence (Q13557 whole entry): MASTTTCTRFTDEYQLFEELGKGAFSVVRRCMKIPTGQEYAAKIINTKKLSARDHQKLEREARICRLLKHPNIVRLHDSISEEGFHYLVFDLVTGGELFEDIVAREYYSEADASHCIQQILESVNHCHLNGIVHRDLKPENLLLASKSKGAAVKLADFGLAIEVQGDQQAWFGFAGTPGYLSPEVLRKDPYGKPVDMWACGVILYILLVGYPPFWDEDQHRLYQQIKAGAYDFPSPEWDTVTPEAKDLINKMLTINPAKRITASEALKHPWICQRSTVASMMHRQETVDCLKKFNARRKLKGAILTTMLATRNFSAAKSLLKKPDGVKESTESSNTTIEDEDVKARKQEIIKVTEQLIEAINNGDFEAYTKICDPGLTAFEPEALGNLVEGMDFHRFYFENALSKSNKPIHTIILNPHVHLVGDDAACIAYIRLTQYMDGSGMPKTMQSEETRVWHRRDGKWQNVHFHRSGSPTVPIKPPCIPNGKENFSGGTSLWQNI
Calcium/calmodulin-dependent protein kinase type II subunit alpha (Homo sapiens), sequence (Q9UQM7 whole entry): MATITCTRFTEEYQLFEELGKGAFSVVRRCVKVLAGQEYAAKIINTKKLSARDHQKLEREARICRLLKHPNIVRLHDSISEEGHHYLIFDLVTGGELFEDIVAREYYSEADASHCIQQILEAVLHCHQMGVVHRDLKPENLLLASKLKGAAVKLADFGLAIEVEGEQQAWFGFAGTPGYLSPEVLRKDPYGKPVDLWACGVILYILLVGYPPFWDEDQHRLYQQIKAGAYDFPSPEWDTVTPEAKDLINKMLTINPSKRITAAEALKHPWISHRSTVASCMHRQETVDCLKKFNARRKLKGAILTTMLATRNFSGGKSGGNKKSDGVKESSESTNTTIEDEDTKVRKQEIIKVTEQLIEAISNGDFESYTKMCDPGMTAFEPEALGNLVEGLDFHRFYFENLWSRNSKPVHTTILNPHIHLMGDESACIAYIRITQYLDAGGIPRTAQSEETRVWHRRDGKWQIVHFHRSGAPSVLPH
Dual specificity protein kinase CLK1 (Homo sapiens), sequence (P49759 whole entry, looked up): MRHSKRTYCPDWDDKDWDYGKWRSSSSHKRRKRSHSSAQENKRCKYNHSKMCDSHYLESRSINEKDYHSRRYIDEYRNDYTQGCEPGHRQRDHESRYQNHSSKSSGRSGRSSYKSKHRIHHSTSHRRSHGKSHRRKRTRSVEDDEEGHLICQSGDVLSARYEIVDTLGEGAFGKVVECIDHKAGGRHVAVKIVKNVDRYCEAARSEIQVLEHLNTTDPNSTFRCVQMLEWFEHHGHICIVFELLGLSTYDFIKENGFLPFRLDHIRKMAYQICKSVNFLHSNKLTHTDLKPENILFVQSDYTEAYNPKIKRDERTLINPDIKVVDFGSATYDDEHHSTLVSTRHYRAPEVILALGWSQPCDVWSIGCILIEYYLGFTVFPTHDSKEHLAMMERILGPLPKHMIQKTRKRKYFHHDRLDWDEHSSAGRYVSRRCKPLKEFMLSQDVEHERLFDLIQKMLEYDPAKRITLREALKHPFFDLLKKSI
Serine/threonine-protein kinase Nek6 (Homo sapiens), sequence (Q9HC98 whole entry): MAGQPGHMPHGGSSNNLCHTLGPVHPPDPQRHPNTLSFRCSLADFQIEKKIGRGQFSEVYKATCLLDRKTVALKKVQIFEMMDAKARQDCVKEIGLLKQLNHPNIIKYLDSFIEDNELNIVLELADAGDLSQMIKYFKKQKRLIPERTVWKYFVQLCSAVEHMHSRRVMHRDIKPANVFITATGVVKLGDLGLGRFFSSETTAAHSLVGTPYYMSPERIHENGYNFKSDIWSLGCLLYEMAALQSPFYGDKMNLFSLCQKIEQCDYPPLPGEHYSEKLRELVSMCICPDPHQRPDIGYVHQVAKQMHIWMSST
Casein kinase I isoform gamma-1 (Homo sapiens), sequence (Q9HCP0 whole entry, looked up, canonical isoform): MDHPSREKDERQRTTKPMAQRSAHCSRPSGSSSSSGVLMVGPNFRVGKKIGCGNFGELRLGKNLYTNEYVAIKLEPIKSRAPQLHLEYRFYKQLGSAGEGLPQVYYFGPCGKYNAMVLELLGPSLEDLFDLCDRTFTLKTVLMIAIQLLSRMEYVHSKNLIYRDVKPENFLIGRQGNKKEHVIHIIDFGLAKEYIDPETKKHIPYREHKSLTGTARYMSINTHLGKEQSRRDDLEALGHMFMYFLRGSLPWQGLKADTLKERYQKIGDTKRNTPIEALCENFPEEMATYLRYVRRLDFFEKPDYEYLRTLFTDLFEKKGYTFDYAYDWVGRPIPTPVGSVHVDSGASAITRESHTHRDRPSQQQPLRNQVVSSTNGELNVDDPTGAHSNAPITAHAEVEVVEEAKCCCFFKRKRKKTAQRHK

Consider `O=c1cc(N2CCOCC2)oc2c1ccc1ccccc12`, for which the thermal shift (ΔTm) in experiment [1] is -0.2 °C; in experiment [2], 0.8 °C; in experiment [3], 0.8 °C; in experiment [4] it was 0.6 °C; in experiment [5], 0.2 °C; in experiment [6] it was 0.1 °C. The thermal shift (ΔTm) in [7] is 0.1 °C; in experiment [8], 0.4 °C; in experiment [9], -0.2 °C; in experiment [10], -0.3 °C; in [11], 0.6 °C; in experiment [12] it was -0.1 °C. In addition, the ΔTm in [13] was determined as 0 °C; in experiment [14], 0.4 °C; in [15], 0 °C; in experiment [16] it was 0.3 °C; in experiment [17], 0.5 °C.

As for `CC(C)n1cnc2/c(=N/c3cccc(Cl)c3)nc(NCCO)[nH]c21`, the ΔTm was 0.1 °C in [1]; 5.1 °C in experiment [2]; 4.5 °C in experiment [3]; 2.9 °C in [4]; 1.3 °C in experiment [5]; -0.1 °C in experiment [6]. Further, the shift in melting temperature (ΔTm) in [7] is 4 °C; in experiment [8], 2.6 °C; in experiment [9], -0.4 °C; in experiment [10] it was 2.3 °C; in [11], 1.4 °C; in experiment [12], 2.5 °C. In addition, the shift in melting temperature (ΔTm) in [13] was found to be 7 °C; in experiment [14], 6.1 °C; in experiment [15] it was 0 °C; in experiment [16], 0.7 °C; in experiment [17], 1.3 °C.

As to `NCCNS(=O)(=O)c1cccc2c(Cl)cccc12`, the shift in melting temperature (ΔTm) in experiment [1] was -0.4 °C; in experiment [2] it was 0.9 °C; in [3], 0.3 °C; in [4], -0.2 °C; in experiment [5], 0.6 °C; in experiment [6] it was -0.1 °C. The thermal shift (ΔTm) is -0.2 °C in experiment [7]; 0.2 °C in experiment [8]; -0.1 °C in experiment [9]; 0.3 °C in experiment [10]; 1 °C in experiment [11]; 0.1 °C in experiment [12]. The shift in melting temperature (ΔTm) in experiment [13] was 0.4 °C; in experiment [14], 0.5 °C; in experiment [15] it was -0.2 °C; in experiment [16], 0.7 °C; in experiment [17], 0.7 °C.

`C[C@@H]1C[C@H]2O[C@@H]2/C=C\C=C\C(=O)Cc2c(Cl)c(O)cc(O)c2C(=O)O1` [RADICICOL]: the ΔTm is -0.6 °C in experiment [1]; 0 °C in experiment [2]; 0.1 °C in experiment [3]; -0.6 °C in experiment [4]; 0.5 °C in [5]; -0.2 °C in experiment [6]. The ΔTm in [7] was 0 °C; in experiment [8], 0.3 °C; in [9], -0.4 °C; in [10] it was -0.1 °C; in experiment [11], 1 °C; in experiment [12], 0.2 °C. The ΔTm in experiment [13] came out at 0.1 °C; in experiment [14] it was 0.3 °C; in experiment [15], 0.2 °C; in experiment [16], 0 °C; in [17], 1.4 °C.

On to `CN(C)c1ncnc2nc[nH]c12` [DIMETHYLADENINE], for which the shift in melting temperature (ΔTm) in experiment [1] stood at 0 °C; in [2], 1.3 °C; in [3] it was 0.9 °C; in [4], 0.9 °C; in experiment [5], 1.3 °C; in experiment [6], 0 °C. Also, the thermal shift (ΔTm) in experiment [7] is 0.4 °C; in experiment [8], 0.5 °C; in experiment [9], -0.2 °C; in [10], 1 °C; in experiment [11], 1.5 °C; in experiment [12], 0 °C. Moreover, the ΔTm in experiment [13] is 0.5 °C; in [14] it was -0.1 °C; in [15], 0.1 °C; in [16], 1.7 °C; in experiment [17] it was 1.1 °C.

Regarding `Cc1cc(C=C2C(=O)C=CC2=O)cc(C)c1O`, the ΔTm in experiment [1] was -0.4 °C; in [2], -0.4 °C; in experiment [3] it was -0.8 °C; in experiment [4] it was 0.4 °C; in experiment [5], 1.3 °C; in experiment [6], -2.2 °C. The thermal shift (ΔTm) in experiment [7] is -1.5 °C; in [8], 3.2 °C; in experiment [9], 1.1 °C; in experiment [10] it was -1.4 °C; in experiment [11] it was -4.6 °C; in experiment [12], 0.2 °C. Further, the ΔTm in experiment [13] was -0.1 °C; in [14], 0.1 °C; in [15], -0.4 °C; in [16], 1.2 °C; in experiment [17], 0.1 °C.

`CCOC(=O)c1cnc2oc3ccc(O)cc3c2c1-c1ccccc1`: the ΔTm is -0.5 °C in [1]; 6.2 °C in experiment [2]; 3.5 °C in [3]; 0 °C in experiment [4]; 2.8 °C in [5]; -0.3 °C in [6]. For the same molecule, the ΔTm was 1 °C in experiment [7]; 5.4 °C in experiment [8]; -0.1 °C in experiment [9]; 2.3 °C in [10]; 2 °C in experiment [11]; 0.3 °C in [12]. In addition, the ΔTm in experiment [13] was 1.1 °C; in [14] it was 1.2 °C; in [15] it was -0.5 °C; in experiment [16], 0.7 °C; in experiment [17], 1.3 °C.

Regarding `Brc1c(Br)c(Br)c2[nH]nnc2c1Br` [TETRABROMOBENZOTRIAZOLE], the ΔTm in experiment [1] was 0.6 °C; in experiment [2] it was 3.6 °C; in [3], 2.4 °C; in experiment [4], 0.7 °C; in [5], 4.4 °C; in [6], -0.4 °C. Moreover, the ΔTm in experiment [7] was 2 °C; in experiment [8], 1.1 °C; in experiment [9] it was -0.7 °C; in [10], -0.5 °C; in [11], 4.1 °C; in experiment [12] it was -0.5 °C. Also, the ΔTm in experiment [13] is -0.3 °C; in experiment [14], -0.4 °C; in experiment [15] it was -4.4 °C; in experiment [16], 1.2 °C; in [17], 2.1 °C.
